# Results taken from US20230295200A1 (REGENTS OF THE UNIVERSITY OF MICHIGAN, priority 2022, published 2023).
# Where two headings read alike, the source gives them in different places.
# Molecular target: T1, STAT6 protein (Homo sapiens, UniProt P42226)
# T1 sequence (P42226 1-847): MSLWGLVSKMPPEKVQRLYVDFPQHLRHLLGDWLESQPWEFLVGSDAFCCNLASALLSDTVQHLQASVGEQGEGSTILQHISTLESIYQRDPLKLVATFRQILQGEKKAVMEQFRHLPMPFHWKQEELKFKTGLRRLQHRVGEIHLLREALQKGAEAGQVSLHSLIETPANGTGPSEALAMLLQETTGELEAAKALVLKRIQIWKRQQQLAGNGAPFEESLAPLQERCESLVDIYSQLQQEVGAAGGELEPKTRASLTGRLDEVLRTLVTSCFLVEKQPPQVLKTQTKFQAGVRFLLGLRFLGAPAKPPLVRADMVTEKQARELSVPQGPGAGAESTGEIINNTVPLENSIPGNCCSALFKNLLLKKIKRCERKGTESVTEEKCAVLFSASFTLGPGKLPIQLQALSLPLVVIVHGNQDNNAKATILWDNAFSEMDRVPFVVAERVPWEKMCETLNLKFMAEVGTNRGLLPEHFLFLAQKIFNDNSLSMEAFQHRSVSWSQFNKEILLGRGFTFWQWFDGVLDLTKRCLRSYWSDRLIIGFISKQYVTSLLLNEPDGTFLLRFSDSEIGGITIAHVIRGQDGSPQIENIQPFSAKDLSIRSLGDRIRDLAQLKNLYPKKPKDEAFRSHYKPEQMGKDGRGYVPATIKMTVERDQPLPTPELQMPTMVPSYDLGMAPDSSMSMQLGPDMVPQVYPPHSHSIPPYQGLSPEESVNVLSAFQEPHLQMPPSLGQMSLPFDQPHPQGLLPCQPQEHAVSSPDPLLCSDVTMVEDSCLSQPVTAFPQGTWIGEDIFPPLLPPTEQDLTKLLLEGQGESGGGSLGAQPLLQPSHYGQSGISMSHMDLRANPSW
# Experiment: Fluorescence polarization (FP) binding assay, STAT6
# Outline: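 5 nM fluorescein tracer + 200 nM STAT protein; PBS pH 7.4, 0.01% BGG, 0.01% Tween-20, 2 mM DTT; shake 15 min, 1 h RT equilibrium; FP read; nonlinear fit for inhibition constants.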
# [1] = FP competition, 5 nM fluorescein-labeled tracer, 200 nM protein, PBS pH7.4, read-out: Binding STAT6
Structure (SMILES),Ki [1],Ki
"CC(=O)N1CC[C@H]2CC[C@@H](C(=O)NCc3ccccc3)N2C(=O)[C@@H](NC(=O)c2cc3cc(C(F)(F)P(=O)(O)O)ccc3[nH]2)C1 [Compound 335, ((2-(((5S,8S,10aR)-3-acetyl-8-(benzylcarbamoyl)-6-oxodecahydropyrrolo[1,2-a][1,5]diazocin-5-yl)carbamoyl)-1H-indol-5-yl)difluoromethyl)phosphonic acid]",> 10000 nM,–
"CC(=O)N1CC[C@H]2CC[C@@H](C(=O)N3CCc4ccccc4C3)N2C(=O)[C@@H](NC(=O)c2cc3cc(C(F)(F)P(=O)(O)O)ccc3[nH]2)C1 [Compound 332, ((2-(((5S,8S,10aR)-3-acetyl-6-oxo-8-(1,2,3,4-tetrahydroisoquinoline-2-carbonyl)decahydropyrrolo[1,2-a][1,5]diazocin-5-yl)carbamoyl)-1H-indol-5-yl)difluoromethyl)phosphonic acid]",> 10000 nM,–
"NC(=O)CC[C@H](NC(=O)c1cc2cc(C(F)(F)P(=O)(O)O)ccc2s1)C(=O)N1CCC[C@H]1C(=O)N1CCO[C@H](c2ccccc2)C1 [Compound 276, ((2-(((S)-5-amino-1,5-dioxo-1-((S)-2-((R)-2-phenylmorpholine-4-carbonyl)pyrrolidin-1-yl)pentan-2-yl)carbamoyl)benzo[b]thiophen-5-yl)difluoromethyl)phosphonic acid]",100 to 1000 nM,–
"CC(C)(C)[C@H](NC(=O)c1cc2cc(C(F)(F)P(=O)(O)O)ccc2s1)C(=O)N1Cc2ccccc2C[C@H]1C(=O)N1CCOC(c2ccc(F)cc2)C1 (stereo partly drawn) [Compound 231, (difluoro(2-(((2S)-1-((3S)-3-(2-(4-fluorophenyl)morpholine-4-carbonyl)-3,4-dihydroisoquinolin-2(1H)-yl)-3,3-dimethyl-1-oxobutan-2-yl)carbamoyl)benzo[b]thiophen-5-yl)methyl)phosphonic acid]",100 to 1000 nM,–
"CN(C(=O)[C@@H]1CC[C@H]2CCC[C@H](NC(=O)c3cc4cc(C(F)(F)P(=O)(O)O)ccc4s3)C(=O)N21)c1ccc(Cl)cc1 [Compound 380, ((2-(((3S,65,9aR)-3-((4-chlorophenyl)(methyl)carbamoyl)-5-oxooctahydro-1H-pyrrolo[1,2-a]azepin-6-yl)carbamoyl)benzo[b]thiophen-5-yl)difluoromethyl)phosphonic acid]",> 10000 nM,–
"CC(=O)N1CC[C@H]2CC[C@@H](C(=O)N3CCc4ccc(C)cc4C3)N2C(=O)[C@@H](NC(=O)c2cc3cc(C(F)(F)P(=O)(O)O)ccc3[nH]2)C1 [Compound 357, ((2-(((5S,8S,10aR)-3-acetyl-8-(7-methyl-1,2,3,4-tetrahydroisoquinoline-2-carbonyl)-6-oxodecahydropyrrolo[1,2-a][1,5]diazocin-5-yl)carbamoyl)-1H-indol-5-yl)difluoromethyl)phosphonic acid]",> 10000 nM,–
"CC(=O)N1CC[C@H]2CC[C@@H](C(=O)N3CCC(C)(C(C)C)C3)N2C(=O)[C@@H](NC(=O)c2cc3cc(C(F)(F)P(=O)(O)O)ccc3s2)C1 (stereo partly drawn) [Compound 390, ((2-(((5S,8S,10aR)-3-acetyl-8-(3-isopropyl-3-methylpyrrolidine-1-carbonyl)-6-oxodecahydropyrrolo[1,2-a][1,5]diazocin-5-yl)carbamoyl)benzo[b]thiophen-5-yl)difluoromethyl)phosphonic acid]",> 10000 nM,–
"CC(=O)N1CC[C@H]2CC[C@@H](C(=O)N3CCC(C)(C4CC4)C3)N2C(=O)[C@@H](NC(=O)c2cc3cc(C(F)(F)P(=O)(O)O)ccc3s2)C1 (stereo partly drawn) [Compound 395, ((2-(((5S,8S,10aR)-3-acetyl-8-(3-cyclopropyl-3-methylpyrrolidine-1-carbonyl)-6-oxodecahydropyrrolo[1,2-a][1,5]diazocin-5-yl)carbamoyl)benzo[b]thiophen-5-yl)difluoromethyl)phosphonic acid]",> 10000 nM,–
"CCOP(=O)(O)C(F)(F)c1ccc2sc(C(=O)N[C@H]3CN(C(C)=O)CC[C@H]4CC[C@@H](C(=O)N5CCC6(CCCCCC6)C5)N4C3=O)cc2c1 [Compound 384, ethyl hydrogen ((2-(((5S,85,10aR)-3-acetyl-6-oxo-8-(2-azaspiro[4.6]undecane-2-carbonyl)decahydropyrrolo[1,2-a][1,5]diazocin-5-yl)carbamoyl)benzo[b]thiophen-5-yl)difluoromethyl)phosphonate]",–,> 10000 nM

# Further lines, with some results ahead:
Ki [1],Structure (SMILES),Ki
> 10000 nM,"CN(C(=O)[C@@H]1CC[C@@H]2CCC[C@H](NC(=O)c3cc4cc(C(F)(F)P(=O)(O)O)ccc4s3)C(=O)N21)c1ccc(Cl)cc1 [Compound 379, ((2-(((3S,6S,9aS)-3-((4-chlorophenyl)(methyl)carbamoyl)-5-oxooctahydro-1H-pyrrolo[1,2-a]azepin-6-yl)carbamoyl)benzo[b]thiophen-5-yl)difluoromethyl)phosphonic acid]",–
100 to 1000 nM,"O=C(N[C@@H](Cc1ccc(Br)cc1)C(=O)N1CCC[C@H]1C(=O)N1CCO[C@H](c2ccccc2)C1)c1cc2cc(C(F)(F)P(=O)(O)O)ccc2s1 [Compound 273, ((2-(((S)-3-(4-bromophenyl)-1-oxo-1-((S)-2-((R)-2-phenylmorpholine-4-carbonyl)pyrrolidin-1-yl)propan-2-yl)carbamoyl)benzo[b]thiophen-5-yl)difluoromethyl)phosphonic acid]",–
> 10000 nM,"CC(=O)N1CC[C@H]2CC[C@@H](C(=O)N3Cc4cccc(Cl)c4C3)N2C(=O)[C@@H](NC(=O)c2cc3cc(C(F)(F)P(=O)(O)O)ccc3[nH]2)C1 [Compound 378, ((2-(((5S,8S,10aR)-3-acetyl-8-(4-chloroisoindoline-2-carbonyl)-6-oxodecahydropyrrolo[1,2-a][1,5]diazocin-5-yl)carbamoyl)-1H-indol-5-yl)difluoromethyl)phosphonic acid]",–
1000 to 10000 nM,"CC(=O)N1CC[C@H]2CC[C@@H](C(=O)N(Cc3ccccc3)C3CCCCC3)N2C(=O)[C@@H](NC(=O)c2cc3cc(C(F)(F)P(=O)(O)O)ccc3[nH]2)C1 [Compound 342, ((2-(((5S,8S,10aR)-3-acetyl-8-(benzyl(cyclohexyl)carbamoyl)-6-oxodecahydropyrrolo[1,2-a][1,5]diazocin-5-yl)carbamoyl)-1H-indol-5-yl)difluoromethyl)phosphonic acid]",–
100 to 1000 nM,"O=C(N[C@@H](Cc1nc2ccccc2s1)C(=O)N1CCC[C@H]1C(=O)N1CCO[C@H](c2ccccc2)C1)c1cc2cc(C(F)(F)P(=O)(O)O)ccc2s1 [Compound 286, ((2-(((S)-3-(benzo[d]thiazol-2-yl)-1-oxo-1-((S)-2-((R)-2-phenylmorpholine-4-carbonyl)pyrrolidin-1-yl)propan-2-yl)carbamoyl)benzo[b]thiophen-5-yl)difluoromethyl)phosphonic acid]",–
100 to 1000 nM,"CC(C)(C)[C@H](NC(=O)c1cc2cc(C(F)(F)P(=O)(O)O)ccc2s1)C(=O)N1Cc2ccccc2C[C@H]1C(=O)N1CCOC(c2ccc(Cl)c(Cl)c2)C1 (stereo partly drawn) [Compound 240, ((2-(((2S)-1-((3S)-3-(2-(3,4-dichlorophenyl)morpholine-4-carbonyl)-3,4-dihydroisoquinolin-2(1H)-yl)-3,3-dimethyl-1-oxobutan-2-yl)carbamoyl)benzo[b]thiophen-5-yl)difluoromethyl)phosphonic acid]",–
> 10000 nM,"CN1CC[C@H]2CC[C@@H](C(=O)N3CCc4ccccc4C3)N2C(=O)[C@@H](NC(=O)c2cc3cc(C(F)(F)P(=O)(O)O)ccc3s2)C1 [Compound 331, (difluoro(2-(((5S,8S,10aR)-3-methyl-6-oxo-8-(1,2,3,4-tetrahydroisoquinoline-2-carbonyl)decahydropyrrolo[1,2-a][1,5]diazocin-5-yl)carbamoyl)benzo[b]thiophen-5-yl)methyl)phosphonic acid]",–
100 to 1000 nM,"CCC(CC)CN1CCC(C[C@H](NC(=O)c2cc3cc(C(F)(F)P(=O)(O)O)ccc3s2)C(=O)N2CCC[C@H]2C(=O)N2CCO[C@H](c3ccccc3)C2)CC1 [Compound 295, ((2-(((S)-3-(1-(2-ethylbutyl)piperidin-4-yl)-1-oxo-1-((S)-2-((R)-2-phenylmorpholine-4-carbonyl)pyrrolidin-1-yl)propan-2-yl)carbamoyl)benzo[b]thiophen-5-yl)difluoromethyl)phosphonic acid]",–
1000 to 10000 nM,"CC(=O)N1CC[C@H]2CC[C@@H](C(=O)N3CCc4c(F)cccc4C3)N2C(=O)[C@@H](NC(=O)c2cc3cc(C(F)(F)P(=O)(O)O)ccc3[nH]2)C1 [Compound 343, ((2-(((5S,8S,10aR)-3-acetyl-8-(5-fluoro-1,2,3,4-tetrahydroisoquinoline-2-carbonyl)-6-oxodecahydropyrrolo[1,2-a][1,5]diazocin-5-yl)carbamoyl)-1H-indol-5-yl)difluoromethyl)phosphonic acid]",–
